Our source for the IC50 values is US5635527A, “Carboxylic acid compound having condensed ring, salt thereof and pharmaceutical use thereof” (The Green Cross Corporation, priority 1994, dated 1997).

SMILES strings stand for the structures.

A word on the IC50: it is the midpoint of a concentration-inhibition curve.

For the assay, the system named is human platelets. Nature of the assay: suppressive activity on ADP aggregation of human platelets. Type of assay: cell-based. As to conditions: platelet rich plasma, ADP 1-5 μM, compound added 2 minutes before ADP, read-out: Suppression of platelet aggregation (IC50). The method, then: Determination of suppressive activity on ADP aggregation of human platelets
Platelet rich plasma was prepared from the blood taken from healthy humans by centrifugation in the presence of 0.38% sodium citrate, and used for the determination.
Two minutes after the test compounds shown in Table 1 were added to the above-mentioned platelet rich plasma, ADP (adenosine-5'-diphosphate) (1-5 μM) having a concentration at which primary aggregation alone is observed was added, and the suppression of ADP aggregation by the compounds was evaluated. The percent suppression was determined by varying the concentration of the compounds and the concentration of the compound at which the aggregation was suppressed by 50% (IC50) was calculated, which was taken as the activity of the compound.

On to `N=C(NCc1ccccc1)c1ccc2oc(C(=O)Nc3ccc(OCC(=O)O)cc3)cc2c1` [Compound 5, 4-[(5-Benzylamidino-2-benzofuranyl)carbonylamino]phenoxy-acetic acid], for which the half-inhibitory concentration (IC50) was 100 nM.
The value for `N=C(N)c1ccc2oc(C(=O)Nc3ccc(OCC(=O)O)cc3)cc2c1` [Compound 10, 4-[(5-Amidino-2-benzofuranyl)carbonylamino]phenoxyacetic acid] was 30 nM; that for `N=C(N)c1ccc2cc(C(=O)Nc3ccc(OCC(=O)O)cc3)oc2c1` [Compound 12, 4-[(6-Amidino-2-benzofuranyl)carbonylamino]phenoxyacetic acid] was 230 nM; that for `Cc1c(C(=O)Nc2ccc(OCC(=O)O)cc2)oc2ccc(C(=N)N)cc12` [Compound 16, 4-[(5-Amidino-3-methyl-2-benzofuranyl)carbonylamino]phenoxyacetic acid] was 40 nM.
`CN(C(=O)c1cc2cc(C(=N)N)ccc2o1)c1ccc(OCC(=O)O)cc1` [Compound 21, 4-[(5-Amidino-2-benzofuranyl)carbonyl-N-methylamino]phenoxyacetic acid]: the half-maximal inhibitory concentration (IC50) was determined as 100 nM.
Consider `N=C(N)c1ccc2oc(C(=O)Nc3ccc(OCC(=O)O)c(OCC(=O)O)c3)cc2c1` [Compound 29, [[4-[(5-Amidino-2-benzofuranyl)carbonylamino]-o-phenylene]dioxy]diacetic acid], for which the IC50 came out at 30 nM.
For `COC(=O)CCc1ccc(NC(=O)c2cc3cc(C(=N)N)ccc3o2)cc1` [Compound 35, Methyl 3-[4-[(5-amidino-2-benzofuranyl)carbonylamino]phenyl]propionate], the IC50 is 500 nM.
Take `N=C(N)c1ccc2oc(C(=O)Nc3ccc(CCC(=O)O)cc3)cc2c1` [Compound 37, 3-[4-[(5-Amidino-2-benzofuranyl)carbonylamino]phenyl]propionate]: the half-maximal inhibitory concentration (IC50) is 40 nM.
Regarding `N=C(N)c1ccc2oc(C(=O)Nc3ccc(C[C@H](N)C(=O)O)cc3)cc2c1` [Compound 46, (S)-3-[4 [(5-Amidino-2-benzofuranyl)carbonylamino]phenyl]-2-aminopropionic acid], the IC50 came out at 60 nM.
For `CCCCS(=O)(=O)NC(Cc1ccc(NC(=O)c2cc3cc(C(=N)N)ccc3o2)cc1)C(=O)O` (centres unmarked) [Compound 48, 3-[4-[(5-Amidino-2-benzofuranyl)carbonylamino]phenyl]-2-(n-butylsulfonylamino)propionic acid], the 50% inhibitory concentration (IC50) was determined as 10 nM.
For `N=C(N)c1ccc2oc(C(=O)Nc3ccc(C[C@H](NS(=O)(=O)C(F)(F)F)C(=O)O)cc3)cc2c1` [Compound 55, (S)-3-[4-[(5-Amidino-2-benzofuranyl)carbonylamino]phenyl]-2-(trifluoromethylsulfonylamino)propionic acid], the IC50 stood at 70 nM.
Consider `N=C(N)c1ccc2oc(C(=O)Nc3ccc(C[C@H](NC(=O)COC4CCNCC4)C(=O)O)cc3)cc2c1` [Compound 56, (S)-3-[4-[(5-Amidino-2-benzofuranyl)carbonylamino]phenyl]2-[(4-piperidinyloxy)acetylamino]propionic acid], for which the IC50 was found to be 30 nM.
On to `COc1ccc(CCC(=O)N[C@@H](Cc2ccc(NC(=O)c3cc4cc(C(=N)N)ccc4o3)cc2)C(=O)O)cc1` [Compound 61, (S)-3-[4-[(5-Amidino-2-benzofuranyl)carbonylamino]phenyl]-2-[3-(4-methoxyphenyl)propionylamino]propionic acid], for which the IC50 is 30 nM.
`N=C(N)c1ccc2oc(C(=O)Nc3ccc(NCC(=O)O)cc3)cc2c1` [Compound 70, [4-[(5-Amidino-2-benzofuranyl)carbonylamino]anilino]acetic acid]: the concentration for half-maximal inhibition (IC50) worked out at 150 nM.
For `CCCCC(=O)N(CC(=O)O)c1ccc(NC(=O)c2cc3cc(C(=N)N)ccc3o2)cc1` [Compound 74, [4-[(5-Amidino-2-benzofuranyl)carbonylamino]-N-(n-valeryl)anilino]acetic acid], the concentration for half-maximal inhibition (IC50) was found to be 230 nM.
Consider `N=C(N)c1ccc2cc(C(=O)Nc3ccc(OCC(=O)O)cc3)[nH]c2c1` [Compound 95, 4-[(6-Amidino-2-indolyl)carbonylamino]phenoxyacetic acid], for which the IC50 came out at 60 nM.
The value for `Cn1c(C(=O)Nc2ccc(OCC(=O)O)cc2)cc2ccc(C(=N)N)cc21` [Compound 118, 4-[(6-Amidino-1-methyl-2-indolyl)carbonylamino]phenoxyacetic acid] was 200 nM; that for `N=C(N)c1ccc2sc(C(=O)Nc3ccc(OCC(=O)O)cc3)cc2c1` [Compound 134, 4-[(5-Amidinobenzo[b]thien-2-yl)carbonylamino]phenoxyacetic acid] was 700 nM.
Turning to `N=C(N)c1ccc2cc(C(=O)Nc3ccc(OCC(=O)O)cc3)sc2c1` [Compound 135, 4-[(6-Amidinobenzo[b]thien-2-yl)carbonylamino]phenoxyacetic acid], the IC50 was found to be 20 nM.
Regarding `N=C(N)c1ccc2oc(C(=O)OC3CCC(OCC(=O)O)CC3)cc2c1` (centres unmarked) [Compound 152, [4-[(5-Amidino-2-benzofuranyl)carbonyloxy]cyclohexyloxy]acetic acid], the half-inhibitory concentration (IC50) stood at 80 nM.
For `CCOC(=O)CC[C@H]1CC[C@H](NC(=O)c2cc3cc(C(=N)N)ccc3o2)CC1` [Compound 159], the IC50 amounted to 70 nM.
Consider `N=C(N)c1ccc2oc(C(=O)N[C@H]3CC[C@H](CCC(=O)OCCO)CC3)cc2c1` [Compound 163, 2-Hydroxyethyl trans-3-[4-[(5-amidino-2-benzofuranyl)carbonylamino]cyclohexyl]propionate], for which the 50% inhibitory concentration (IC50) was found to be 450 nM.
On to `N=C(N)c1ccc2oc(C(=O)N[C@H]3CC[C@H](OCC(=O)OCCO)CC3)cc2c1` [Compound 164, 2-Hydroxyethyl trans-[4-[(5-amidino-2-benzofuranyl)carbonylamino]cyclohexyloxy]acetate], for which the IC50 is 180 nM.
`N=C(N)c1ccc2oc(C(=O)NC3CCC(CCC(=O)O)CC3)cc2c1` (centres unmarked) [Compound 165, 3-[4-[(5-Amidino-2-benzofuranyl)carbonylamino]cyclohexyl]propionic acid]: the IC50 is 10 nM.
On to `N=C(N)c1ccc2oc(C(=O)N[C@H]3CC[C@H](CCC(=O)O)CC3)cc2c1` [Compound 167, trans-3-[4-[(5-amidino-2-benzofuranyl)carbonylamino]cyclohexyl]propionic acid], for which the half-maximal inhibitory concentration (IC50) was determined as 6 nM.
Consider `N=C(N)c1ccc2oc(C(=O)N[C@H]3CC[C@H](OCC(=O)O)CC3)cc2c1` [Compound 179, trans-[4-[(5-Amidino-2-benzofuranyl)carbonylamino]cyclohexyloxy]acetic acid], for which the 50% inhibitory concentration (IC50) was 10 nM.
In the case of `Cc1c(C(=O)N[C@H]2CC[C@H](OCC(=O)O)CC2)oc2ccc(C(=N)N)cc12` [Compound 182, trans-[4-[(5-Amidino-3-methyl-2-benzofuranyl)carbonylamino]cyclohexyloxy]acetic acid], the half-maximal inhibitory concentration (IC50) was 30 nM.
The figure for `COc1c(C(=O)N[C@H]2CC[C@H](OCC(=O)O)CC2)oc2ccc(C(=N)N)cc12` [Compound 184, trans-[4-[(5-Amidino-3-methoxy-2-benzofuranyl)carbonyl-amino]cyclohexyloxy]acetic acid] is 150 nM; for `CCOC(=O)CCN1CCC(NC(=O)c2cc3cc(C(=N)N)ccc3o2)CC1` [Compound 191, Ethyl 3-[4-[(5-amidino-2-benzofuranyl)carbonylamino]-piperidino]propionate] it is 160 nM; for `N=C(N)c1ccc2oc(C(=O)NC3CCN(CCC(=O)O)CC3)cc2c1` [Compound 192, 3-[4-[(5-amidino-2-benzofuranyl)carbonylamino]piperidino]propionic acid] it is 20 nM.
Regarding `CCOC(=O)CCN1CCC(OC(=O)c2cc3cc(C(=N)N)ccc3o2)CC1` [Compound 193, Ethyl 3-[4-[(5-amidino-2-benzofuranyl)carbonyloxy]piperidino]propionate], the half-maximal inhibitory concentration (IC50) stood at 320 nM.
The figure for `N=C(N)c1ccc2oc(C(=O)N[C@H]3CC[C@H](NCC(=O)O)CC3)cc2c1` [Compound 195, trans-[4-[(5-Amidino-2-benzofuranyl)carbonylamino]cyclohexylamino]acetic acid] is 20 nM; for `CCOC(=O)CN(CC(=O)OCC)[C@H]1CC[C@H](NC(=O)c2cc3cc(C(=N)N)ccc3o2)CC1` [Compound 202, Diethyl trans-[4-[(5-amidino-2-benzofuranyl)carbonylamino]cyclohexylamino]diacetate] it is 230 nM.
As for `CC(C)(C)OC(=O)CN(CC(=O)OC(C)(C)C)[C@H]1CC[C@H](NC(=O)c2cc3cc(C(=N)N)ccc3o2)CC1` [Compound 203, di-t-butyl trans-[4-[(5-amidino-2-benzofuranyl)-carbonylamino]cyclohexylamino]diacetate], the half-inhibitory concentration (IC50) came to 1750 nM.
Regarding `N=C(N)c1ccc2oc(C(=O)N[C@H]3CC[C@H](N(CC(=O)O)CC(=O)O)CC3)cc2c1` [Compound 204, trans-[4-[(5-Amidino-2-benzofuranyl)carbonylamino]cyclohexylamino]diacetic acid], the half-maximal inhibitory concentration (IC50) was found to be 9 nM.
The value for `CCOC(=O)CO[C@H]1CC[C@H](NC(=O)c2cc3ccc(C(=N)N)cc3[nH]2)CC1` [Compound 209, Ethyl trans-[4-[(6-Amidino-2-indolyl)carbonylamino]cyclohexyloxy]acetate] was 100 nM.
On to `N=C(N)c1ccc2cc(C(=O)N[C@H]3CC[C@H](OCC(=O)O)CC3)[nH]c2c1` [Compound 212, trans-[4-[(6-Amidino-2-indolyl)carbonylamino]cyclohexyloxy]acetic acid], for which the concentration for half-maximal inhibition (IC50) came out at 30 nM.
As for `N=C(N)c1ccc2cc(C(=O)N[C@H]3CC[C@H](OCC(=O)O)CC3)sc2c1` [Compound 232, trans-[4-[(6-Amidinobenzo[b]thien-2-yl)carbonylamino]cyclohexyloxy]acetic acid], the IC50 worked out at 20 nM.
